Assays:
pyridoxal kinase (PdxK) [1] = biological target: T1, pyridoxal kinase (PdxK) (Homo sapiens, UniProt O00764); assay: steady-state enzyme kinetics ([…] nm), Lineweaver-Burk and secondary plots; type: biochemical; set-up: wild-type human recombinant
T1 sequence (O00764 1-312): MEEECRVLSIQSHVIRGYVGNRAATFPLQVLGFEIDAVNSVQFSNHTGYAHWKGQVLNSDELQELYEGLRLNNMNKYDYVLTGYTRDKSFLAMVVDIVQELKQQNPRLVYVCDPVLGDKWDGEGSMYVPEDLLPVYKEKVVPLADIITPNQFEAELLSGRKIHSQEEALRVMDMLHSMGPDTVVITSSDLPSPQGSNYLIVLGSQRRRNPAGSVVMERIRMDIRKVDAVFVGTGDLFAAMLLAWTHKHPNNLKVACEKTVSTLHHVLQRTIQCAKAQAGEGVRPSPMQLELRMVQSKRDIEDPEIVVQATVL

pyridoxal kinase (PdxK) [2] = biological target: T1, pyridoxal kinase (PdxK); assay: enzyme activity assay; type: biochemical; set-up: human recombinant

Ki (pyridoxal kinase (PdxK) [1]) [mM]	Compound	enzyme activity assay (pyridoxal kinase (PdxK) [2])
3.3	Cc1ncc(C[n+]2csc(CCOP(=O)([O-])OP(=O)(O)O)c2C)c(N)n1 [thiamin diphosphate]	–
2.2	Cc1ncc(C[n+]2csc(CCO)c2C)c(N)n1 [thiamin]	–
–	CCCCCCCCCCOC(=O)C[n+]1csc(CCO)c1C [DMHT, 3-decyloxycarbonylmethyl-4-methyl-5-(2-hydroxyethyl) thiazolium]	Figure 2B shows that both compounds affected PdxK activity, supporting the direct interaction of the enzyme
